The record followed here is patent US11007524B2, “Automatic microfluidic system for rapid personalized drug screening and testing method for personalized antibiotic susceptibility” (National Tsing Hua University, priority 2019, dated 2021).

For assay [1], the system named is vancomycin-intermediate Staphylococcus aureus (VISA). Nature of the assay: Minimum inhibitory concentration by automatic microfluidic system (Example 9), resazurin colour change. Type of assay: cell-based. As for the experimental part: A determination of minimum inhibitory concentration is performed by using the microfluidic chip 100 of FIG. 1 in cooperated with the testing method 200 for personalized antibiotic susceptibility of FIG. 5. The details of the testing method 200 has been described as mentioned above so that the same process will not be further illustrated herein.
In experimental, the microfluidic chip 100 is divided into a reaction zone 1001 and a reaction zone 1002 along line 10-10 by using the fluid storage chamber 111a and the fluid storage chamber 111b as a center. The reaction zone 1001 is utilized for determining the minimum inhibitory concentration of vancomycin for the vancomycin-intermediate Staphylococcus aureus, and the reaction zone 1002 is utilized for determining the minimum inhibitory concentration of gentamicin for the vancomycin-intermediate Staphylococcus aureus. After 4 hours of incubation of the reaction solutions including the resazurin, with different concentrations, the color of the reaction solution will be gradually changed to red when the vancomycin-intermediate Staphylococcus aureus grows and can be observed directly through the microfluidic chip 100.
In such the example, the reference numerals of the reaction chambers 131 of the microfluidic chip 100 are reassigned to the reaction chambers 131a to 131l. […]
(Alamar Blue is a resazurin reagent that responds to reducing activity.)

For assay [2] the test system is unchanged. Nature of the assay: Minimum inhibitory concentration by broth microdilution (Comparative Example 1). Type of assay: cell-based. The settings on record: same conditions. From the text:
Furthermore, the present testing further includes Comparative Example 1.
Background: In broth dilution the organism is exposed to a series of concentrations in liquid medium.

Values after ≈ are worked out from the molar mass of the structure shown. Where only a bound is given, the exact number is not on record here.

Turning to `CN[C@H](CC(C)C)C(=O)N[C@H]1C(=O)N[C@@H](CC(N)=O)C(=O)N[C@H]2C(=O)N[C@H]3C(=O)N[C@H](C(=O)N[C@H](C(=O)O)c4cc(O)cc(O)c4-c4cc3ccc4O)[C@H](O)c3ccc(c(Cl)c3)Oc3cc2cc(c3O[C@@H]2O[C@H](CO)[C@@H](O)[C@H](O)[C@H]2O[C@H]2C[C@](C)(N)[C@H](O)[C@H](C)O2)Oc2ccc(cc2Cl)[C@H]1O` [Vancomycin, vancomycin], the MIC in assay [1] (Staphylococcus aureus, VISA, 4 h, read-out: minimum inhibitory concentration, Example 9) was determined as 2.16 µg/mL (≈ 1.49 µM); in assay [2] (Staphylococcus aureus), 2 µg/mL (≈ 1.38 µM).

With gentamicin, the “minimum inhibitory concentration, Example 9” value in assay [1] (microfluidic chip, VISA 1500 CFU, 3 μL reaction solution, 4 hours of incubation, resazurin) was above 7.52 µg/mL. Also, the “minimum inhibitory concentration, Comparative Example 1” value in assay [2] was above 8 µg/mL.
